Data reported in ChEMBL document CHEMBL1140874, “Ligand-based and structure-based virtual screening to identify carbonic anhydrase IX inhibitors” (Bioorg Med Chem, 2009).
pKi: −log10 of the molar value.

What was measured:
Carbonic anhydrase 9 = Carbonic anhydrase 9 (Homo sapiens, UniProt Q16790)
Carbonic anhydrase 2 = Carbonic anhydrase 2 (Homo sapiens, UniProt P00918)
Carbonic anhydrase 1 = Carbonic anhydrase 1 (Homo sapiens, UniProt P00915)
Sequence of Carbonic anhydrase 1 (P00915 whole entry): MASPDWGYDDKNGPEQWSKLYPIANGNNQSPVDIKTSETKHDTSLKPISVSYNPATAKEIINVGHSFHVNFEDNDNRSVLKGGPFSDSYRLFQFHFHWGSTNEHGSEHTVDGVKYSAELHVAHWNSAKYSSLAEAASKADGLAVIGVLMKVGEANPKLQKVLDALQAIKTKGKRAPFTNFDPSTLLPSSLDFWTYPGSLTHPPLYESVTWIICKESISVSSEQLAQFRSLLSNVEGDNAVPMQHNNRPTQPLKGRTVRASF

SMILES	pKi (Carbonic anhydrase 9)	pKi (Carbonic anhydrase 2)	pKi (Carbonic anhydrase 1)
NS(=O)(=O)c1ccc(CCNC(=O)c2sc3ccccc3c2Cl)cc1	5.97		
CC1CCN(N(CCCC(=O)Nc2ccc(S(N)(=O)=O)cc2)N2CCC(C)CC2)CC1	7.05	6.58	
NS(=O)(=O)c1ccc(CCNC(=O)CN2C(=O)c3ccccc3C2=O)cc1	6.54		
C=CCn1c(SCC(=O)Nc2ccc(S(N)(=O)=O)cc2)nc2sc3c(c2c1=O)CCCC3	5.56	6.48	4.82
NS(=O)(=O)Oc1ccc(OS(N)(=O)=O)cc1		6.19	
N#Cc1c(N)n(-c2cccc(S(N)(=O)=O)c2)c2nc3ccccc3nc12	6.52		

Continued, in another order:

pKi (Carbonic anhydrase 9)	pKi (Carbonic anhydrase 2)	SMILES	pKi (Carbonic anhydrase 1)
	6.42	NS(=O)(=O)c1ccc(CCNC(=S)Nc2ccc(C(=O)O)cc2)cc1	
6.54	7.00	NS(=O)(=O)c1ccc(CNS(=O)(=O)c2ccc(F)cc2)cc1	
5.74	5.58	NS(=O)(=O)c1ccc(CNC(=O)NC2CC2c2ccccc2)cc1 (centres undefined)	
